Measurements from US9670227B2, “Thienopyrimidine derivatives, a process for their preparation and pharmaceutical compositions containing them” (LES LABORATOIRES SERVIER, priority 2013, dated 2017).

How the values were obtained:
Mcl-1 protein = Mcl-1 protein (UniProtKB primary accession number: Q07820) (Homo sapiens, UniProt Q07820); assay: Inhibition of Mcl-1 by fluorescence polarisation, Method 1; format: binding; settings: fluorescence polarisation; Method 1, or Method 2; read-out: IC50 (M) Mcl-1 FP
Mcl-1 protein, sequence (Q07820 whole entry): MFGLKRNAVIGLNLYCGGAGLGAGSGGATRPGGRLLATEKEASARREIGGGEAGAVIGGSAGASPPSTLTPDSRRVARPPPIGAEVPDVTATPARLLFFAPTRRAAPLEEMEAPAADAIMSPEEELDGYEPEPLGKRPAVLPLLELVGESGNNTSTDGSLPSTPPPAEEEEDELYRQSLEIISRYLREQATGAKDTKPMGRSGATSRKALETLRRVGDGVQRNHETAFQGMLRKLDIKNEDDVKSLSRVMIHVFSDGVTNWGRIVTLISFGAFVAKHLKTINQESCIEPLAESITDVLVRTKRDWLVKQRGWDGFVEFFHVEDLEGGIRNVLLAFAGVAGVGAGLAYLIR
How it was run: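 An 11-point DMSO dilution of compound is mixed with buffer (10 mM HEPES, 150 mM NaCl, 0.05% Tween 20, pH 7.4) carrying 1 nM fluorescein-labelled ligand and 5 nM Mcl-1, final concentrations. Displacement is monitored by fluorescence polarisation.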

[1] = system: H929 multiple myeloma tumour line; assay: In vitro cytotoxicity, Microculture Tetrazolium Assay; format: cell-based; settings: Homo sapiens, NCI-H929, 48 h, H929 cells, 48 hours exposure, MTT; read-out: IC50 (μM) MTT H929
Protocol: The cytotoxicity studies were carried out on the H929 multiple myeloma tumour line.
The cells are distributed onto microplates and exposed to the test compounds for 48 hours.

IC50 (Mcl-1 protein) [M]	Structure (SMILES)	IC50 [1] [µM]
3.6e-09	CCN(C)CCOc1ccc(-c2c(-c3ccc(F)cc3)sc3ncnc(OC(Cc4ccccc4OCc4ccnc(-c5ccccc5F)n4)C(=O)O)c23)c(C)c1Cl [Example 747, (2R)-2-{[(5Sa)-5-(3-chloro-4-{2-[ethyl(methyl)amino]ethoxy}-2-methylphenyl)-6-(4-fluorophenyl)thieno[2,3-d]pyrimidin-4-yl]oxy}-3-(2-{[2-(2-fluorophenyl)pyrimidin-4-yl]methoxy}phenyl)propanoic acid]	0.0263
9.48e-10	Cc1cc(-c2nccc(COc3ccccc3CC(Oc3ncnc4sc(-c5ccc(F)cc5)c(-c5ccc(OCCN(C)C)c(Cl)c5C)c34)C(=O)O)n2)c(C)cn1 [Example 751, (2R)-2-{[(5Sa)-5-{3-chloro-4-[2-(dimethylamino)ethoxy]-2-methylphenyl}-6-(4-fluorophenyl)thieno[2,3-d]pyrimidin-4-yl]oxy}-3-(2-{[2-(2,5-dimethylpyridin-4-yl)pyrimidin-4-yl]methoxy}phenyl)propanoic acid]	0.008
5.5e-09	Cc1c(-c2c(-c3ccc(F)cc3)sc3ncnc(OC(Cc4ccccc4OCc4ccnn4C(C)C)C(=O)O)c23)ccc(OCCN(C)C)c1Cl [Example 752, (2R)-2-{[(5Sa)-5-{3-chloro-4-[2-(dimethylamino)ethoxy]-2-methylphenyl}-6-(4-fluorophenyl)thieno[2,3-d]pyrimidin-4-yl]oxy}-3-(2-{[1-(propan-2-yl)-1H-pyrazol-5-yl]methoxy}phenyl)propanoic acid]	0.084
3e-09	COCCOc1ccccc1-c1nccc(COc2ccccc2CC(Oc2ncnc3sc(-c4ccc(F)cc4)c(-c4ccc(OCCN(C)C)c(Cl)c4C)c23)C(=O)O)n1 [Example 753, (2R)-2-{[(5Sa)-5-{3-chloro-4-[2-(dimethylamino)ethoxy]-2-methylphenyl}-6-(4-fluorophenyl)thieno[2,3-d]pyrimidin-4-yl]oxy}-3-[2-({2-[2-(2-methoxyethoxy)phenyl]pyrimidin-4-yl}methoxy)phenyl]propanoic acid]	0.005
4.7e-09	CCOCCn1nccc1COc1ccccc1CC(Oc1ncnc2sc(-c3ccc(F)cc3)c(-c3ccc(OCCN(C)C)c(Cl)c3C)c12)C(=O)O [Example 754, (2R)-2-{[(5Sa)-5-{3-chloro-4-[2-(dimethylamino)ethoxy]-2-methylphenyl}-6-(4-fluorophenyl)thieno[2,3-d]pyrimidin-4-yl]oxy}-3-(2-{[1-(2-ethoxyethyl)-1H-pyrazol-5-yl]methoxy}phenyl)propanoic acid]	0.089
4.65e-09	Cc1c(-c2c(-c3cccc(F)c3F)sc3ncnc(OC(Cc4ccccc4OCc4ccnn4C(C)(C)C)C(=O)O)c23)ccc(OCCN(C)C)c1Cl [Example 755, (2R)-3-{2-[(1-tert-butyl-1H-pyrazol-5-yl)methoxy]phenyl}-2-{[(5Sa)-5-{3-chloro-4-[2-(dimethylamino)ethoxy]-2-methylphenyl}-6-(2,3-difluorophenyl)thieno[2,3-d]pyrimidin-4-yl]oxy}propanoic acid]	0.032
1.73e-09	COc1ccccc1-c1nccc(COc2ccccc2CC(Oc2ncnc3sc(-c4ccc(OCc5ccccc5C)cc4)c(-c4ccc(OCCN5CCN(C)CC5)c(Cl)c4C)c23)C(=O)O)n1 [Example 767, (2R)-2-[((5Sa)-5-{3-chloro-2-methyl-4-[2-(4-methylpiperazin-1-yl)ethoxy]phenyl}-6-{4-[(2-methylbenzyl)oxy]phenyl}thieno[2,3-d]pyrimidin-4-yl)oxy]-3-(2-{[2-(2-methoxyphenyl)pyrimidin-4-yl]methoxy}phenyl)propanoic acid]	0.05
1.04e-09	COc1ccccc1-c1nccc(COc2ccccc2CC(Oc2ncnc3sc(-c4ccc(OCc5ccc(C)cc5)cc4)c(-c4ccc(OCCN5CCN(C)CC5)c(Cl)c4C)c23)C(=O)O)n1 [Example 768, (2R)-2-[((5Sa)-5-{3-chloro-2-methyl-4-[2-(4-methylpiperazin-1-yl)ethoxy]phenyl}-6-{4-[(4-methylbenzyl)oxy]phenyl}thieno[2,3-d]pyrimidin-4-yl)oxy]-3-(2-{[2-(2-methoxyphenyl)pyrimidin-4-yl]methoxy}phenyl)propanoic acid]	0.039
9.48e-10	COc1ccccc1-c1nccc(COc2ccccc2CC(Oc2ncnc3sc(-c4ccc(OCc5ccccn5)cc4)c(-c4ccc(OCCN5CCN(C)CC5)c(Cl)c4C)c23)C(=O)O)n1 [Example 769, (2R)-2-[((5Sa)-5-{3-chloro-2-methyl-4-[2-(4-methylpiperazin-1-yl)ethoxy]phenyl}-6-[4-(pyridin-2-ylmethoxy)phenyl]thieno[2,3-d]pyrimidin-4-yl)oxy]-3-(2-{[2-(2-methoxyphenyl)pyrimidin-4-yl]methoxy}phenyl)propanoic acid]	0.01
1.01e-09	COc1ccc(COc2ccc(-c3sc4ncnc(OC(Cc5ccccc5OCc5ccnc(-c6ccccc6OC)n5)C(=O)O)c4c3-c3ccc(OCCN4CCN(C)CC4)c(Cl)c3C)cc2)cc1 [Example 770, (2R)-2-[((5Sa)-5-{3-chloro-2-methyl-4-[2-(4-methylpiperazin-1-yl)ethoxy]phenyl}-6-{4-[(4-methoxybenzyl)oxy]phenyl}thieno[2,3-d]pyrimidin-4-yl)oxy]-3-(2-{[2-(2-methoxyphenyl)pyrimidin-4-yl]methoxy}phenyl)propanoic acid]	0.01
1.04e-09	COc1ccccc1-c1nccc(COc2ccccc2CC(Oc2ncnc3sc(-c4ccc(OCc5ccnn5C)cc4)c(-c4ccc(OCCN5CCN(C)CC5)c(Cl)c4C)c23)C(=O)O)n1 [Example 771, (2R)-2-[((5Sa)-5-{3-chloro-2-methyl-4-[2-(4-methylpiperazin-1-yl)ethoxy]phenyl}-6-{4-[(1-methyl-1H-pyrazol-5-yl)methoxy]phenyl}thieno[2,3-d]pyrimidin-4-yl)oxy]-3-(2-{[2-(2-methoxyphenyl)pyrimidin-4-yl]methoxy}phenyl)propanoic acid]	0.019
9.48e-10	COc1ccccc1-c1nccc(COc2ccccc2CC(Oc2ncnc3sc(-c4ccc(OCc5cccnc5)cc4)c(-c4ccc(OCCN5CCN(C)CC5)c(Cl)c4C)c23)C(=O)O)n1 [Example 772, (2R)-2-[((5Sa)-5-{3-chloro-2-methyl-4-[2-(4-methylpiperazin-1-yl)ethoxy]phenyl}-6-[4-(pyridin-3-ylmethoxy)phenyl]thieno[2,3-d]pyrimidin-4-yl)oxy]-3-(2-{[2-(2-methoxyphenyl)pyrimidin-4-yl]methoxy}phenyl)propanoic acid]	0.01
1.25e-09	COc1ccccc1-c1nccc(COc2ccccc2CC(Oc2ncnc3sc(-c4ccc(OCc5cccc(C)c5)cc4)c(-c4ccc(OCCN5CCN(C)CC5)c(Cl)c4C)c23)C(=O)O)n1 [Example 773, (2R)-2-[((5Sa)-5-{3-chloro-2-methyl-4-[2-(4-methylpiperazin-1-yl)ethoxy]phenyl}-6-{4-[(3-methylbenzyl)oxy]phenyl}thieno[2,3-d]pyrimidin-4-yl)oxy]-3-(2-{[2-(2-methoxyphenyl)pyrimidin-4-yl]methoxy}phenyl)propanoic acid]	0.017
3.55e-09	COc1ccccc1-c1nccc(COc2ccccc2CC(Oc2ncnc3sc(-c4ccc(OCc5ccc(Cl)cc5)cc4)c(-c4ccc(OCCN5CCN(C)CC5)c(Cl)c4C)c23)C(=O)O)n1 [Example 775, (2R)-2-[(6-{4-[(4-chlorobenzyl)oxy]phenyl}-(5Sa)-5-{3-chloro-2-methyl-4-[2-(4-methylpiperazin-1-yl)ethoxy]phenyl}thieno[2,3-d]pyrimidin-4-yl)oxy]-3-(2-{[2-(2-methoxyphenyl)pyrimidin-4-yl]methoxy}phenyl)propanoic acid]	0.039
9.48e-10	COc1ccccc1-c1nccc(COc2ccccc2CC(Oc2ncnc3sc(-c4ccc(OCc5ccn(C)n5)cc4)c(-c4ccc(OCCN5CCN(C)CC5)c(Cl)c4C)c23)C(=O)O)n1 [Example 776, (2R)-2-[((5Sa)-5-{3-chloro-2-methyl-4-[2-(4-methylpiperazin-1-yl)ethoxy]phenyl}-6-{4-[(1-methyl-1H-pyrazol-3-yl)methoxy]phenyl}thieno[2,3-d]pyrimidin-4-yl)oxy]-3-(2-{[2-(2-methoxyphenyl)pyrimidin-4-yl]methoxy}phenyl)propanoic acid]	0.007
1.12e-09	COc1ccccc1-c1nccc(COc2ccccc2CC(Oc2ncnc3sc(-c4ccc(OCc5cccs5)cc4)c(-c4ccc(OCCN5CCN(C)CC5)c(Cl)c4C)c23)C(=O)O)n1 [Example 777, (2R)-2-[((5Sa)-5-{3-chloro-2-methyl-4-[2-(4-methylpiperazin-1-yl)ethoxy]phenyl}-6-[4-(thiophen-2-ylmethoxy)phenyl]thieno[2,3-d]pyrimidin-4-yl)oxy]-3-(2-{[2-(2-methoxyphenyl)pyrimidin-4-yl]methoxy}phenyl)propanoic acid]	0.008
1.09e-09	COc1ccccc1-c1nccc(COc2ccccc2CC(Oc2ncnc3sc(-c4ccc(OCc5ccsc5)cc4)c(-c4ccc(OCCN5CCN(C)CC5)c(Cl)c4C)c23)C(=O)O)n1 [Example 778, (2R)-2-[((5Sa)-5-{3-chloro-2-methyl-4-[2-(4-methylpiperazin-1-yl)ethoxy]phenyl}-6-[4-(thiophen-3-ylmethoxy)phenyl]thieno[2,3-d]pyrimidin-4-yl)oxy]-3-(2-{[2-(2-methoxyphenyl)pyrimidin-4-yl]methoxy}phenyl)propanoic acid]	0.013
